Source: US20140193827A1 (TEVA PHARMACEUTICAL INDUSTRIES, LTD., priority 2013, published 2014)

Tested on: GA-primed murine splenocytes
Assay: ANOVA-based pattern identification method
Assay type: cell-based, mouse
From the text: We sought to identify probes matching specific patterns of expression across experimental conditions using a technique that referred to as the ANOVA-based Pattern Identification Method.
To carry out the analysis in a general manner, we computed the 6 p-values required to do pairwise comparisons of all 4 conditions for all probes using the ANOVA1 function in MATLAB. We then identified sets of probes matching the desired pattern. In the example above, probes were identified as being only affected by PG if their 6 pairwise comparison pvalues matched the following pattern (pGA-PG<0.05, pPG-reference standard<0.05, pPG-Medium<0.05, pGAMedium>0.05, pGA-reference standard>0.05, preference standard-Medium>0.05).

[1] = DOWN IN generic ONLY, group mean

## glatiramer acetate [GA]
[1]
  PARP11 expression: 5.609
  PAX6 expression: 5.641
  PCSK2 expression: 5.653
  PDK2 expression: 5.937
  PHIP expression: 8.192
  PMS1 expression: 5.806
  PRICKLE2 expression: 5.859
  PTP4A2 expression: 8.952
  PTPN22 expression: 5.804
  R3HDM1 expression: 6.229
  RAB4A expression: 6.851
  RAB6B expression: 5.767
  RAB27A expression: 9.622
  RBM18 expression: 7.292
  RDH1 expression: 5.682
  RGS19 expression: 6.584
  RHBDF2 expression: 6.336
  RNF17 expression: 5.538
  RNF150 expression: 5.93
  RPL32 expression: 13.81
  RTN3 expression: 5.897
  RgenericRIP1 expression: 5.935
  SCNN1B expression: 5.616
  SEC1 expression: 5.75
  SEMA3E expression: 5.601
  SH3BP2 expression: 10.95
  SOX2 expression: 5.674
  SPCS2 expression: 5.97
  SPDYB expression: 5.641
  SPN expression: 5.889
  SPRR2K expression: 5.662
  STAT4 expression: 5.836
  SVNGR4 expression: 5.647
  SYT10 expression: 5.717
  TATDN3 expression: 5.694
  TCFAP2C expression: 5.821
  TDH expression: 5.601
  TMEFF2 expression: 5.65
  TMEM146 expression: 6.132
  TMPO expression: 8.533
  TRPM1 expression: 5.694
  TRPV3 expression: 5.597
  TSC1 expression: 5.984
  TSSC1 expression: 7.729
  TYKI expression: 7.673
  UGDH expression: 5.86
  UGT2A1 expression: 5.61
  UTX expression: 9.817
  V1RD9 expression: 5.697
  ZAP70 expression: 7.106
  ZBTB44 expression: 5.642
  ZCCHC11 expression: 5.935
  ZFP120 expression: 5.536
  ZFP212 expression: 6.401
  ZSCAN2 expression: 5.813
  control_ILMN_1378612 expression: 5.7
  control_ILMN_1378679 expression: 5.604
  control_ILMN_1378774 expression: 5.707
  control_ILMN_1378775 expression: 5.662
  control_ILMN_1379152 expression: 5.629
  control_ILMN_1379205 expression: 5.72
  genericC expression: 5.676
DOWN IN generic ONLY, group mean, first USP47 line
  USP47 expression: 6.068
DOWN IN generic ONLY, group mean, second USP47 line
  USP47 expression: 6.377
UP IN GA AND REF ONLY
  1700025G04RIK expression level: 7.268
  1700027N10RIK expression level: 6.448
  1810013L24RIK expression level: 7.658
  2310016C16RIK expression level: 5.823
  2500002A22RIK expression level: 6.674
  2610017G09RIK expression level: 5.839
  2810008M24RIK expression level: 9.714
  2810410P22RIK expression level: 7.979
  3202002H23RIK expression level: 6.527
  4930404F20RIK expression level: 6.759
  4930422G04RIK expression level: 5.79
  4930539E08RIK expression level: 6.255
  4932413O14RIK expression level: 5.732
  5830457O10RIK expression level: 6.825
  8030402P03RIK expression level: 7.776
  9430077D24RIK expression level: 7.091
  A630098G22RIK expression level: 7.124
  A830083H19RIK expression level: 7.635
  A930014D08RIK expression level: 5.703
  ACTN4 expression level: 6.609
  ALS2CL expression level: 7.393
  AP1B1 expression level: 10.95
  ARHGAP25 expression level: 10.16
  ARL1 expression level: 9.913
  ARL5A expression level: 8.028
  BAT2D expression level: 5.932
  BAZ1B expression level: 5.676
  BCL11B expression level: 7.609
  C130079K02RIK expression level: 7.532
  C920025C15RIK expression level: 6.929
  CBFB expression level: 6.648
  CCR4 expression level: 5.821
  CD226 expression level: 6.995
  CHIC2 expression level: 8.484
  CLCN3 expression level: 8.431
  COX7A1 expression level: 7.161
  CSF1 expression level: 5.383
  CXCR6 expression level: 6.834
  CYB5 expression level: 11.21
  D4ERTD22E expression level: 11.37
  D6WSU163E expression level: 6.582
  D230021E06RIK expression level: 7.605
  D630011N09RIK expression level: 5.625
  D630022O22RIK expression level: 6.33
  DCK expression level: 6.716
  DCUN1D5 expression level: 9.535
  DHX32 expression level: 8.979
  DMBT1 expression level: 5.787
  DTYMK expression level: 10.17
  EG386506 expression level: 5.743
  EG666756 expression level: 10.78
  EIF3B expression level: 6.383
  EIF4E3 expression level: 8.882
  ELAC2 expression level: 6.351
  ELF1 expression level: 10.44
  EP5TI1 expression level: 8.281
  ETS1 expression level: 7.811
  F830048D03RIK expression level: 6.799
  FANCA expression level: 5.606
  FBXO33 expression level: 8.898
  FEM1C expression level: 8.076
  FERD3L expression level: 5.887
